In paper PMC4589238, “Acute Biphasic Effects of Ayahuasca” (PLoS ONE, 2015):
Read-outs that look alike come from different tables or passages of the source.

Experiments:
[1] = Plasma concentrations of ayahuasca compounds and metabolites after oral ayahuasca (LC/MS/MS); format: in vivo, human; settings: for Cmax: po
From the text: A sample of six liters of "Hoasca" was donated by the União do Vegetal (UDV) church in Brazil for the specific purpose of use in this study. Quantification of the main compounds in the brew was done with liquid chromatography-electrospray ionization-tandem mass spectrometry (LC/MS/MS). The screening included the following compounds: DMT, DMT‐N‐oxide (DMT-NO), N‐methyltryptamine (NMT), indoleacetic acid (IAA), 5‐hydroxy‐DMT (5-OH-DMT, or bufotenin), 5‐methoxy‐DMT (5-MeO-DMT), Harmine, Harmol, Harmaline, Harmalol, THH, 7‐hydroxy‐tetrahydroharmine (THH-OH), and 2‐methyl‐tetrahydro‐beta‐carboline (2-MTHBC). The original liquid volume was then reduced to 50% using a rotary evaporator to decrease the amount of liquid intake.
Blood was collected in sterile EDTA containing tubes. Ten blood samples (3 mL each) were collected every 25 minutes, starting 25 minutes before ayahuasca ingestion and ending 200 minutes after ingestion (in a total of ten samples for each individual). Blood was collected by a professional nurse, with a catheter that remained in place during the entire time of the study. Each tube was carefully and slowly turned upside-down three times and then stored at 0°C until all ten samples were collected. Blood samples were then centrifuged at 2000 rpm for 10 min at 4°C and the resulting plasma immediately collected and frozen at -80°C. The frozen plasma samples were stored at -80°C until shipped on dry ice to USA for analysis according to [31]. Compounds included in this screening were DMT, DMT-NO, NMT, IAA, 5-OH-DMT (bufotenin), 5-MeO-DMT, Harmine, Harmol, Harmaline, Harmalol, THH, THH-OH and 2-MTHBC.
Two volunteers opted out of blood collection, and data from one volunteer was discarded due to high hemolysis in the blood samples. Therefore data were available from 16 volunteers. Maximum plasma Concentration (Cmax), Time for maximum plasma concentration (Tmax) and area under the curve (AUC) of ten identified compounds are summarized in Table 2. […] No significant differences were found between men and women for any of the identified compounds in blood. […] There were no significant correlations between time to vomit and Cmax or AUC.

healthy volunteers = assay: Association between plasma concentration and EEG spectral changes (generalized linear models); format: in vivo, human
Procedure: Relationships between plasma concentration of identified compounds and spectral changes in the six frequency bands evaluated were calculated by fitting generalized linear models (glmfit function in MATLAB) for each compound and frequency band. This analysis was followed by the non-parametric cluster based correction with 5000 permutations.
Results were considered statistically significant when p <0.05. Effect sizes are also reported, using Partial eta squared (partial η^2) for the main frequency clusters and Cohen’s d for the generalized linear models.

MAO-A = tested on: MAO-A; design: method as in PMID 19879939; settings: cited from earlier work
human subjects = settings: cited from earlier work
rats = tested on: rats; design: method as in PMID 9649961; settings: cited from earlier work

Compound: COc1ccc2c3c([nH]c2c1)C(C)=NCC3 [Harmaline]
- Cmax ([1]; both sexes, human, in vivo, plasma, 16 volunteers, oral ayahuasca, sampling to 200 min, read-out: Cmax (mean ± sd)): 14.7 ± 13.9 ng/mL
- Cmax ([1]; both sexes, human, in vivo, plasma, 16 volunteers, oral ayahuasca, read-out: Cmax (min—max)): 1.56 to 44.4 ng/mL
- Tmax ([1]; both sexes, human, in vivo, plasma, 16 volunteers, oral ayahuasca, read-out: Tmax (mean ± sd) (converted)): 2.68 h
- Time to reach plateau of plasma level in the group average ([1]; from ayahuasca ingestion, group average curve): 100 min
- AUC (min—max) ([1]; plasma, 16 volunteers, oral ayahuasca): 6.16 to 199.78 g·min/mL
- Clusters between plasma concentration and EEG spectra (healthy volunteers; delta, theta and beta frequency bands): did not show any significant clusters
- Cohen's d, plasma concentration vs alpha band power decrease (healthy volunteers; left centro-parieto-occipito-frontal electrodes): 0.0285
- Cohen's d, plasma concentration vs slow-gamma power increase (healthy volunteers; left fronto-temporo-centro-parieto-occipital electrodes also extending to right temporo-parietal electrodes): 0.0885
- Cohen's d, plasma concentration vs fast-gamma power increase (healthy volunteers; one large widespread bilateral cluster): 0.0032
- Cohen's d, plasma concentration vs alpha band power decrease (healthy volunteers; right central electrodes (C2, C4, CP4 and CP6)): 0.2944
- Cohen's d, plasma concentration vs slow-gamma power increase (healthy volunteers; right frontal electrodes): 0.0401
- Potency at inhibiting MAO-A relative to MAO-B (MAO-A): 10,000 fold
- Dose necessary for psychoactivity (human subjects; oral or i.v. administration): 4 mg/kg
- Orally psychoactive dose (human subjects; oral): 300 to 400 mg
- Substitution in drug discrimination (rats): substitute the psychedelic DOM
